Laboratory results from US11053196B2, “Substituted indoline derivatives as dengue viral replication inhibitors” (JANSSEN PHARMACEUTICALS, INC., priority 2017, dated 2021).

Tests used:
DENV-2 16681 strain = assay: DENV-2 antiviral assay (eGFP-labeled virus in Vero cells); type: cell-based, Dengue virus; details: DENV-2 16681 eGFP, MOI 0.5, 3 days
Procedure: The antiviral activity of all the compounds of the invention was tested against the DENV-2 16681 strain which was labeled with enhanced green fluorescent protein (eGPF). The culture medium consists of minimal essential medium supplemented with 2% of heat-inactivated fetal calf serum, 0.04% gentamycin (50 mg/mL) and 2 mM of L-glutamine. Vero cells, obtained from ECACC, were suspended in culture medium and 25 μL was added to 384-well plates (2500 cells/well), which already contain the antiviral compounds. Typically, these plates contain a 5-fold serial dilution of 9 dilution steps of the test compound at 200 times the final concentration in 100% DMSO (200 nL). […] Finally, each plate contains wells which are assigned as virus controls (containing cells and virus in the absence of compound), cell controls (containing cells in the absence of virus and compound) and medium controls (containing medium in the absence of cells, virus and compounds). To the wells assigned as medium control, 25 μL of culture medium was added instead of Vero cells. Once the cells are added to the plates, the plates were incubated for 30 minutes at room temperature to allow the cells to distribute evenly within the wells. Next, the plates were incubated in a fully humidified incubator (37° C., 5% CO2) until the next day. Then, DENV-2 strain 16681, labeled with eGFP, was added at a multiplicity of infection (MOI) of 0.5.
Therefore, 15 μL of virus suspension was added to all the wells containing test compound and to the wells assigned as virus control. In parallel, 15 μL of culture medium was added to the medium and cell controls. Next, the plates were incubated for 3 days in a fully humidified incubator (37° C., 5% CO2). At the day of the read out, the eGFP fluorescence was measured using an automated fluorescence microscope at 488 nm (blue laser). Using an in-house LIMS system, inhibition dose response curves for each compound were calculated and the half maximal effective concentration (EC50) was determined. Therefore, the percent inhibition (I) for every test concentration is calculated using the following formula: I=100*(ST−SCC)/(SVC−SCC); ST, SCC and SVC are the amount of eGFP signal in the test compound, cell control and virus control wells, respectively. The EC50 represents the concentration of a compound at which the virus replication is inhibited with 50%, as measured by a 50% reduction of the eGFP fluorescent intensity compared to the virus control. The EC50 is calculated using linear interpolation (Table 1).

DENV-1 strain TC974#666 = assay: Tetravalent RT-qPCR assay, serotype 1; type: cell-based; details: Dengue virus, DENV1, 72 h; RT-qPCR serotype 1 TC974#666, Vero cells, day 3
Procedure: (§1) The antiviral activity of the compounds of the invention was tested against DENV-1 strain TC974#666 (NCPV), DENV-2 strain 16681, DENV-3 strain H87 (NCPV) and DENV-4 strain H241 (NCPV) in a RT-qPCR assay. Therefore, Vero cells were infected with either DENV-1, or -2, or -3, or -4 in the presence or absence of test compounds. At day 3 post-infection, the cells were lysed and cell lysates were used to prepare cDNA of both a viral target (the 3′UTR of DENV; Table 2) and a cellular reference gene (1-actin, Table 2). Subsequently, a duplex real time PCR was performed on a Lightcycler480 instrument. The generated Cp value is inversely proportional to the amount of RNA expression of these targets. Inhibition of DENV replication by a test compound results in a shift of Cp's for the 3′UTR gene. On the other hand, if a test compound is toxic to the cells, a similar effect on 1-actin expression will be observed. The comparative ΔΔCp method is used to calculate EC50, which is based on the relative gene expression of the target gene (3′UTR) normalized with the cellular housekeeping gene (1-actin). In addition, CC50 values are determined based on the C, values acquired for the housekeeping gene β-actin.
(§2) The culture medium consisted of minimal essential medium supplemented with 2% of heat-inactivated fetal calf serum, 0.04% gentamycin (50 mg/mL) and 2 mM of L-glutamine. Vero cells, obtained from ECACC, were suspended in culture medium and 75 μL/well was added in 96-well plates (10000 cells/well), which already contain the antiviral compounds. […] In addition, each plate contains wells which are assigned as virus controls (containing cells and virus in the absence of compound) and cell controls (containing cells in the absence of virus and compound). Once the cells were added in the plates, the plates were incubated in a fully humidified incubator (37° C., 5% CO2) until the next day. Dengue viruses serotype-1, 2, 3 and 4 were diluted in order to obtain a Cp of ˜22-24 in the assay. Therefore, 25 μL of virus suspension was added to all the wells containing test compound and to the wells assigned as virus control. In parallel, 25 μL of culture medium was added to the cell controls. Next, the plates were incubated for 3 days in a fully humidified incubator (37° C., 5% CO2). After 3 days, the supernatant was removed from the wells and the cells were washed twice with ice-cold PBS (−100 μL). The cell pellets within the 96-well plates were stored at −80° C. for at least 1 day. Next, RNA was extracted using the Cells-to-CT™ lysis kit, according to the manufacturer's guideline (Life Technologies). The cell lysates can be stored at −80° C. or immediately used in the reverse transcription step.
(§3) In preparation of the reverse transcription step, mix A (table 3A) was prepared and 7.57 μL/well was dispensed in a 96-well plate. After addition of 5 μL of the cell lysates, a five minute denaturation step at 75° C. was performed (table 3B). Afterwards, 7.43 μL of mix B was added (table 3C) and the reverse transcription step was initiated (table 3D) to generate cDNA.
(§4) Finally, a RT-qPCR mix was prepared, mix C (table 4A), and 22.02 μL/well was dispensed in 96-well LightCycler qPCR plates to which 3 μL of cDNA was added and the qPCR was performed according to the conditions in table 4B on a LightCycler 480.
(§5) Using the LightCycler software and an in-house LIMS system, dose response curves for each compound were calculated and the half maximal effective concentration (EC50) and the half maximal cytotoxic concentration (CC50) were determined (Tables 5-8).

DENV-2 strain 16681 = assay: Tetravalent RT-qPCR assay, serotype 2; type: cell-based; details: Dengue virus, DENV2, 72 h; RT-qPCR serotype 2 16681, Vero cells, day 3
Procedure: as §1, §2, §3, §4, §5

DENV-3 strain H87 = assay: Tetravalent RT-qPCR assay, serotype 3; type: cell-based; details: Dengue virus, DENV3, 72 h; RT-qPCR serotype 3 H87, Vero cells, day 3
Procedure: as §1, §2, §3, §4, §5

DENV-4 strain H241 = assay: Tetravalent RT-qPCR assay, serotype 4; type: cell-based; details: Dengue virus, DENV4, 72 h; RT-qPCR serotype 4 H241, Vero cells, day 3
Procedure: as §1, §2, §3, §4, §5

in vitro = details: African green monkey
Vero cells = details: African green monkey
[1] = Dengue virus, DENV2, Vero, 72 h

Row | Structure (SMILES) | EC50 (DENV-2 16681 strain) | EC50 (DENV-1 strain TC974#666) | EC50 (DENV-2 strain 16681) | EC50 (DENV-3 strain H87) | EC50 (DENV-4 strain H241) | CC50 (in vitro) | CC50 (Vero cells) | EC50 (DENV-2 16681 strain; [1])
1 | COc1cc(NC(C(=O)N2CCc3sc(C(F)(F)F)cc32)c2ccc(Cl)cc2)cc(OCCCC(=O)O)c1 (single isomer, unassigned) [Compound 10A, 4-(3-((1-(4-chlorophenyl)-2-oxo-2-(2-(trifluoromethyl)-5,6-dihydro-4H-thieno[3,2-b]pyrrol-4-yl)ethyl)amino)-5-methoxyphenoxy)butanoic acid] | 0.3 nM | 0.22 nM | 0.11 nM | 4.2 nM | 30 nM | 14 µM | – | –
2 | COc1cc(NC(C(=O)N2CCc3ccc(S(F)(F)(F)(F)F)cc32)c2ccc(Cl)cc2)cc(OCCCC(=O)O)c1 (single isomer, unassigned) [Compound 1B, 4-(3-((1-(4-chlorophenyl)-2-oxo-2-(6-(pentafluoro-λ^6-sulfanyl)indolin-1-yl)ethyl)amino)-5-methoxyphenoxy)butanoic acid] | 0.11 nM | 0.096 nM | 0.18 nM | 1.9 nM | 9.6 nM | – | 13 µM | –
3 | [2H]C(Nc1cc(OC)cc(OCCCC(=O)O)c1)(C(=O)N1CCc2ccc(OC(F)(F)F)cc21)c1ccc(Cl)cc1 (single isomer, unassigned) [Compound 7A-D, 4-(3-((1-(4-chlorophenyl)-1-deuterio-2-oxo-2-(6-(trifluoromethoxy)indolin-1-yl)ethyl)amino)-5-methoxyphenoxy)butanoic acid] | 0.1 nM | 0.24 nM | 0.16 nM | 2.4 nM | 13 nM | 12 µM | – | –
4 | COc1cc(NC(C(=O)N2CCc3cc(F)c(OC(F)(F)F)cc32)c2ccc(Cl)cc2)cc(OCCCC(=O)O)c1 (single isomer, unassigned) [Compound 5B, 4-(3-((1-(4-chlorophenyl)-2-(5-fluoro-6-(trifluoromethoxy)indolin-1-yl)-2-oxoethyl)amino)-5-methoxyphenoxy)butanoic acid] | 0.12 nM | 0.33 nM | 0.29 nM | 2.6 nM | 20 nM | – | 12 µM | –
5 | [2H]C(Nc1cc(OC)cc(OCCCC(=O)O)c1)(C(=O)N1CCc2ccc(OC(F)(F)F)cc21)c1ccc(Cl)cc1 (single isomer, unassigned) [Compound 7B-D, 4-(3-((1-(4-chlorophenyl)-1-deuterio-2-oxo-2-(6-(trifluoromethoxy)indolin-1-yl)ethyl)amino)-5-methoxyphenoxy)butanoic acid] | 16 nM | – | – | – | – | – | 9.6 µM | –
6 | COc1cc(NC(C(=O)N2CCc3sc(C(F)(F)F)cc32)c2ccc(Cl)cc2)cc(OCCCC(=O)O)c1 (single isomer, unassigned) [Compound 10B, 4-(3-((1-(4-chlorophenyl)-2-oxo-2-(2-(trifluoromethyl)-5,6-dihydro-4H-thieno[3,2-b]pyrrol-4-yl)ethyl)amino)-5-methoxyphenoxy)butanoic acid] | 37 nM | – | – | – | – | – | 12 µM | –
7 | COc1cc(NC(C(=O)N2CCc3nc(OC)c(C(F)(F)F)cc32)c2ccc(Cl)cc2)cc(OCCCC(=O)O)c1 (racemic) [Compound 9, 4-(3-((1-(4-chlorophenyl)-2-(5-methoxy-6-(trifluoromethyl)-2,3-dihydro-1H-pyrrolo[3,2-b]pyridin-1-yl)-2-oxoethyl)amino)-5-methoxyphenoxy)butanoic acid] | – | – | – | – | – | 12 µM | – | 0.99 nM
8 | COc1cc(NC(C(=O)N2CCc3ccc(OC(F)(F)F)cc32)c2ccc(F)cc2OC)cc(OCCCC(=O)O)c1 (racemic) [Compound 6, 4-(3-((1-(4-fluoro-2-methoxyphenyl)-2-oxo-2-(6-(trifluoromethoxy)indolin-1-yl)ethyl)amino)-5-methoxyphenoxy)butanoic acid] | – | – | – | – | – | 12 µM | – | 0.63 nM
9 | COc1cc(NC(C(=O)N2CCc3sc(C(F)(F)F)cc32)c2ccc(Cl)cc2)cc(OCCCC(=O)O)c1 (racemic) [Compound 10, 4-(3-((1-(4-chlorophenyl)-2-oxo-2-(2-(trifluoromethyl)-5,6-dihydro-4H-thieno[3,2-b]pyrrol-4-yl)ethyl)amino)-5-methoxyphenoxy)butanoic acid] | – | – | – | – | – | 19 µM | – | 0.52 nM
10 | COc1cc(NC(C(=O)N2CCc3c(C)cc(OC(F)(F)F)cc32)c2ccc(Cl)cc2)cc(OCCCC(=O)O)c1 (single isomer, unassigned) [Compound 4B, 4-(3-((1-(4-chlorophenyl)-2-(4-methyl-6-(trifluoromethoxy)indolin-1-yl)-2-oxoethyl)amino)-5-methoxyphenoxy)butanoic acid] | 0.057 nM | 0.11 nM | 0.067 nM | 0.92 nM | 12 nM | 13 µM | – | –
11 | COc1cc(NC(C(=O)N2CCc3c(C)cc(OC(F)(F)F)cc32)c2ccc(Cl)cc2)cc(OCCCC(=O)O)c1 (racemic) [Compound 4, 4-(3-((1-(4-chlorophenyl)-2-(4-methyl-6-(trifluoromethoxy)indolin-1-yl)-2-oxoethyl)amino)-5-methoxyphenoxy)butanoic acid] | – | – | – | – | – | 12 µM | – | 0.11 nM
12 | COc1cc(NC(C(=O)N2CCc3c(C)cc(C(F)(F)F)cc32)c2ccc(Cl)cc2)cc(OCCCC(=O)O)c1 (single isomer, unassigned) [Compound 2B, 4-(3-((1-(4-chlorophenyl)-2-(4-methyl-6-(trifluoromethyl)indolin-1-yl)-2-oxoethyl)amino)-5-methoxyphenoxy)butanoic acid] | 0.078 nM | 0.091 nM | 0.061 nM | 0.85 nM | 10 nM | – | 14 µM | –
